Measured values taken from US9682994B2, “Inhibitors of retroviral replication” (The Scripps Research Institute, priority 2011, dated 2017).
Entries after “also recorded” stand apart in the source; their conditions may differ.

Tests used:
[1] = system: HIV-1 pNL4-3; assay: Viral mRNA expression after acute infection of HeLa-CD4 cells (RT-qPCR); assay type: cell-based
Text: FIG. 1E: Analysis of viral mRNA expression. […] First-strand cDNA was synthesized with random primers and target DNA was quantified by qPCR using primers recognizing the env and LTR regions. Results were normalized as copies of viral mRNA per copy of GAPDH mRNA. […] RNA samples not reverse transcribed were used as negative control. Error bars represent standard deviations.
Total RNA extracted four days after acute infection with pNL4-3 (MOI>>1) in the presence of drugs. First-strand cDNA was synthesized with random primers, and quantified by qPCR using primers recognizing the env and LTR regions. Results were normalized as copies of viral mRNA per copy of GAPDH mRNA. The arbitrary value of 1 was assigned to the DMSO control. RNA samples that were not reverse transcribed were used as negative control. Error bars represent standard deviation.
First-strand cDNA from RNA for qPCR was prepared using […]™ first-strand cDNA kit (Invitrogen), following the manufacturer's instructions, using approximately 5 μg of RNA as starting material and random hexamers as first-strand primers. Quantitative PCR was performed with an aliquot of cDNA as template, using […]® 480 SYBR Green I Master (Roche) in a 20 μL reaction according to the manufacturer's instructions. […] The primers used were as follows: […]
PIs show low efficacy in this short 48 h assay as they act only upon spreading from the initial infection. […] The results were similar when viral production was determined by RT-PCR of viral RNA in HeLa-CD4 cells infected and treated for four days with one compound from each class of inhibitors (FIG. 5E).

[2] = system: CXCR4, TK, PGK or CD4 promoters; assay: Transcription from cellular/control promoters; assay type: cell-based
Description: FIG. 8C: Luciferase assays of TE671 cells transfected with the indicated promoter or promoter portion driving Luciferase expression. Main consensus bonding sites for transcription factors are indicated. 24 h post transfection cells were split and treated or not with CA. Forty hours later cells were lysed and luciferase activity measured as in FIG. 8A.
FIG. 8D: CEM SS and HeLa-CD4 cells stained for CD4, CXCR4 or isotype control expression followed by flow cytometry analysis.
Similar results were obtained when a Tat-encoding plasmid was transfected into HeLa-CD4 expressing LTR-Luc (FIG. 2B). […] Reporter transcription from heat-inactivated recombinant Tat protein (FIG. 2A), which was used as negative control, reflects Tat-independent activation of the HIV promoter, and accounts for approximately 20% of maximal activation.

[3] = system: basic region Tat mutant (Tat-1 BRM); assay: Biotinylated compound pull-down of basic region Tat mutant; assay type: binding, HIV-1
Description: HEK293T cells were transfected with flag-tagged Tat 101 a.a. (Tat-F-101-wt), a shorter Tat version with 86 a.a. (Tat-F-86-wt), Tat 86 a.a. mutated in the basic domain (Tat-F-BRM), flag-tagged CDK11 (CDK11-F), flag-tagged 9G8 (9G8-F) and empty vector control.
DYNABEADS® MYONE™ Streptavidin T1 (12.5 μl slurry) (Invitrogen) were pre-saturated with 1.88 μl of 1 mM in DMSO of Biotin alone or Bio-dCA and incubated for 1 h at room temperature with orbital rocking, plus an additional 30 min with Biotin (0.63 μl of 1 mM in DMSO). Protein extracts (250 μg per sample) were incubated with the pre-saturated beads in lysis buffer supplemented with 0.1% BSA for 1 h at 4° C. with orbital rocking. After incubation, the beads were washed three times with lysis buffer.

[4] = molecular target: CDK11 (Homo sapiens, UniProt P21127); assay: In vitro CDK11 kinase assay with 9G8 as substrate; assay type: biochemical
Sequence of CDK11 (P21127 whole entry): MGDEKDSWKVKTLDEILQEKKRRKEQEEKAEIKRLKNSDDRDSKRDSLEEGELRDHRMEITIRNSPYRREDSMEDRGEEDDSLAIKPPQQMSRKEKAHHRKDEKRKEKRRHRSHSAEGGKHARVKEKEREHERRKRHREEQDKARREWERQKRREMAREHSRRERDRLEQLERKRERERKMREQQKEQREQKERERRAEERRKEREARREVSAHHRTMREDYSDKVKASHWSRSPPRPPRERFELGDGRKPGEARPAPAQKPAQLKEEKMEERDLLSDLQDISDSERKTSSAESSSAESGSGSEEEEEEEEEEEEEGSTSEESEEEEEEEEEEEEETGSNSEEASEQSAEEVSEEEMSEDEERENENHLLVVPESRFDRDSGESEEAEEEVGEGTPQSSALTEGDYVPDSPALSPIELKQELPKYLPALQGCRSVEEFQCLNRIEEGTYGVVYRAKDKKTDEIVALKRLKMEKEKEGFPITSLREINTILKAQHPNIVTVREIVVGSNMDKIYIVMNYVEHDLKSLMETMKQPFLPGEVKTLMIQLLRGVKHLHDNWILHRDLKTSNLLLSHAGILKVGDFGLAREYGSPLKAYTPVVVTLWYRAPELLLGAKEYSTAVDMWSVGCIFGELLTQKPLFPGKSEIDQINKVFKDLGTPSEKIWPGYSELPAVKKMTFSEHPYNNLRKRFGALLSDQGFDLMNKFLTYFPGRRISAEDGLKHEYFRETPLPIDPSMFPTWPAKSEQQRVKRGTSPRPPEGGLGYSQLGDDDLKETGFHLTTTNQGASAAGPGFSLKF
Description: To the mixture, 100 μM of ATP and 5 μCi of γ-^32P-ATP (3000 Ci/mmol 10 mCi/ml) were added to a final volume of 30 μl in kinase buffer. Following 30 min at 30° C., the reaction was terminated by addition of 6 μl of 6× SDS loading buffer. After boiling for 10 min, proteins were separated by SDS-PAGE. The gel was dried and visualized by autoradiography.

[5] = system: Tat; assay: Tat-flag sub-cellular localization by immunofluorescence; assay type: cell-based, HIV-1; conditions: HeLa-CD4 cells transfected with Tat-flag
Description: Flag epitope-tagged Tat was recognized with anti-flag and AlexaFluor 568 anti-IgG. Transfections were performed in HeLa-CD4 cells. Magnification 300×.
Flag recognized with anti-flag and AlexaFluor 568 anti-IgG antibodies. Endogenous fibrillarin stained with anti-fibrillarin and FITC-anti-IgG antibodies.
HeLa cells were grown on fibronectin treated coverslips and transfected with the indicated plasmids. Following transfection, cells were treated with DMSO or dCA. Cells were then fixed with 3.7% formaldehyde. After fixation, the cells were permeabilized with 0.1% triton X-100 in PBS with 5% FBS. Primary antibodies (mouse α-FLAG M2 (Sigma), rabbit α-Fibrillarin C13C3 (Cell Signaling), and/or rabbit α-Cyclin T1 H-245 (Santa Cruz)) were added along with the permeabilization solution and incubated at room temperature for 1 hour. The cells were washed with PBS and incubated with 1:500 dilution of Alexa Fluor conjugated secondary antibodies in PBS containing 5% FBS for 1 hour in the dark. […]
Given that dCA interacts with Tat via its basic domain, which is also the nucleolar localization signal (NoLS), it was questioned whether dCA impacts Tat localization. […] The Tat basic mutant was analyzed in parallel, and this protein was completely excluded from the nucleolus both in the presence or absence of dCA.

[6] = system: PBMCs; assay: Viability of uninfected PBMCs (MTT, ViViD/Annexin V); assay type: cell-based, human
Description: FIG. 13A: Mitochondrial metabolic activity.
Viability was measured after 24 h and 72 h of culture. PBMCs were stained with FITC-labeled antibody to CD3 (555339), Alexa 700-labeled antibody to CD4 (557922), PerCP-Cy5.5-labeled antibody to CD8 (341051), V450-labeled antibody to CD14 (560349), V450-labeled antibody to CD19 (560353), APC-labeled antibody to AnnexinV (550474) and Live/Dead Aqua blue (L34957). All antibodies were purchased from BD Biosciences except for Live/Dead Aqua blue (Invitrogen). Analyses were performed on a LSRII (BD Bioscience) flow cytometer.

[7] = Hepatic microsomal stability, mouse; assay type: in vitro ADME; conditions: 1 μM, 0.2-1 mg/ml microsomes, NADPH 1 mM
[8] = Mouse mini-PK, plasma levels by LC-MS/MS; assay type: in vivo, C57Bl-6 mice
Description: In vitro studies compared murine and human hepatic microsomes (150 donor mixed male/female pool). […] C57B16 mice were dosed at 10 mg/kg and drug levels were quantitated in plasma at 1, 6, and 24 h by LC-MS/MS (Table 1B).

## CN(C)[C@H]1C[C@@]23CC[C@@]4(O2)C(=CC[C@]2(C)C(c5ccc6ccncc6c5)=CC[C@H]24)C=C3[C@@H](O)[C@@H]1O [dCA, didehydro-Cortistatin A]
[1]; HeLa-CD4 infected and treated for four days
  maximum inhibition, viral RNA: around 80%
[1]; HeLa-CD4 infected and treated for four days, read-out: EC50, viral production by RT-PCR of viral RNA
  EC50: < 0.0001 µM
[1]; acute infection, increasing concentrations
  total amount of viral RNA in infected cells: drastic dose-dependent reduction
[2]
  transcription from CXCR4, TK, PGK or CD4 promoters: not affected
[3]
  interaction with TAR-nonbinding basic region Tat mutant (pull-down): not
[4]
  in vitro CDK11 kinase activity: unable to block; also recorded: did not inhibit
[5]
  effect on Tat localization: redistribution of Tat to the periphery of the nucleolus
[6]
  CC50: 100 µM
[7]
  T1/2 hepatic microsomes, Mouse: 3.02 h
[8]; 1 h after dosing, 10 mg/kg
  drug levels relative to the EC50 of cell-based assays: greater than 1000 fold
[8]; 24 h post dose, 10 mg/kg
  plasma drug levels for all mice: above 30 nM
[8]; after 24 h treatment, 10 mg/kg
  health of mice: still healthy
[8]; mouse, in vivo
  bioavailability in mice: good bioavailability
